Source: ChEMBL document CHEMBL4765228, “Indole-like Trk receptor antagonists” (Eur J Med Chem, 2016)

How the values were obtained:
[1] = target: T1, High affinity nerve growth factor receptor (Homo sapiens, UniProt P04629); experiment: Inhibition of GAL4 fused TrkA (unknown origin) expressed in PC12 cells transfected with pFA2-Elk plasmid and pFR-luciferase plasmid measured for 18 hrs by luciferase reporter gene assay; format: cell-based, Rattus norvegicus, PC-12
[2] = target: T1, High affinity nerve growth factor receptor; experiment: Inhibition of TrkA (unknown origin)
[3] = target: T1, High affinity nerve growth factor receptor; experiment: Inhibition of GST-fused TrkA (unknown origin) expressed in SF9 cells using H2N-RRRAAAEEIYGEINH2 peptide as substrate preincubated with ATP and Mg and measured by microtiter plate reader analysis

T1 sequence (P04629 whole entry, the tested form may be a part): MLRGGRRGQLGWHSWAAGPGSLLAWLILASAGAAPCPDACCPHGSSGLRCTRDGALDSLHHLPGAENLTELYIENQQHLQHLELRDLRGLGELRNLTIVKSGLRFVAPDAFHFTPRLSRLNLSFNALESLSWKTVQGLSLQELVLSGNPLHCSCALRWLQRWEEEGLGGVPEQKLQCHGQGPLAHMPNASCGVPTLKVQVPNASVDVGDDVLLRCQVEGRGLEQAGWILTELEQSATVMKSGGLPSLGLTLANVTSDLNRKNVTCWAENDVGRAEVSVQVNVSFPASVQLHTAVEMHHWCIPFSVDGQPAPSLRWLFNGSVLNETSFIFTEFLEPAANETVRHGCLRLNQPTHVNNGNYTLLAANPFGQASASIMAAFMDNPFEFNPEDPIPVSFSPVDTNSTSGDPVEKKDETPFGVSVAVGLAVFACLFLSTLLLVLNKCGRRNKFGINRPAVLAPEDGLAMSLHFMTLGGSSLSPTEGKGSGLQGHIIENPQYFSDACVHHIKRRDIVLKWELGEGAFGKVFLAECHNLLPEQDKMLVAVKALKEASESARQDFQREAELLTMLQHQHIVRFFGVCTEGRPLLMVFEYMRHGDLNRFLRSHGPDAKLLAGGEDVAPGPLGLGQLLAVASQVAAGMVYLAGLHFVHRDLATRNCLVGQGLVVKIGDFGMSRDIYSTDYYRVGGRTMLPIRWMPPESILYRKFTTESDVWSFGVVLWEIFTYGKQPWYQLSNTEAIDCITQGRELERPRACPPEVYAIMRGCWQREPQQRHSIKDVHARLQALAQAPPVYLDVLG

Compound | IC50 [1] | IC50 [2] | IC50 [3]
Cn1cc(/C=C2\C(=O)Nc3ccccc32)c2ccccc21 | 998 nM | 25.7 nM | 
Cc1[nH]c2ccccc2c1/C=C1\C(=O)Nc2ccccc21 |  | > 10000 nM | 
NS(=O)(=O)c1ccc2c(c1)/C(=C/c1c[nH]c3ccccc13)C(=O)N2 | 342 nM | 11.1 nM | 
NS(=O)(=O)c1ccc(N/C=C2\C(=O)Nc3ccccc32)cc1 |  |  | 63 nM
O=C1Nc2ccccc2/C1=C\c1c(Cl)[nH]c2ccccc12 |  | > 10000 nM | 
NS(=O)(=O)c1ccc2c(c1)/C(=C/c1c[nH]c3ccc(O)cc13)C(=O)N2 | 366 nM | 5.22 nM | 
